Paper PMC9321963 (Birth Defects Research, 2022)
Where two headings read alike, the source gives them in different places.

Assays:
[1] = Toxicokinetics, rat DRF EFD study; format: in vivo; settings: for AUC(0-t) / Cmax / Tmax: female, Sprague-Dawley (Crl:CD SD), rat, plasma, po, 60 mg/kg/day, rat DRF EFD, 60 mg/kg/day oral; for Cmax: C max; for Tmax: T max
[2] = Toxicokinetics, rat main EFD study; format: in vivo; settings: for Tmax / AUC(0-t) / Cmax: female, Sprague-Dawley (Crl:CD SD), rat, plasma, po; for AUC(0-t) / Cmax: rat main EFD; for Cmax: C max
[3] = Toxicokinetics, rat investigative EFD study; format: in vivo; settings: for Tmax / AUC(0-t) / Cmax: female, rat, plasma, po; for AUC(0-t) / Cmax: rat investigative EFD; for Cmax: C max
[4] = Toxicokinetics, rabbit DRF EFD study; settings: female, in vivo
[5] = Toxicokinetics, rabbit main EFD study; settings: female, in vivo
pregnant rats = experiment: Rat DRF embryofetal developmental toxicity study; format: in vivo; settings: rat DRF EFD
pregnant rabbits = experiment: Rabbit EFD studies; format: in vivo
PI4Kα [6] = target: T1, PI4Kα (Homo sapiens, UniProt P42356); experiment: ADP-Glo Kinase Assay, PI4Kα; format: biochemical
AhR = target: T2, AhR (Homo sapiens, UniProt P35869); experiment: In vitro off-target inhibition, AhR
T2 sequence (P35869 11-848): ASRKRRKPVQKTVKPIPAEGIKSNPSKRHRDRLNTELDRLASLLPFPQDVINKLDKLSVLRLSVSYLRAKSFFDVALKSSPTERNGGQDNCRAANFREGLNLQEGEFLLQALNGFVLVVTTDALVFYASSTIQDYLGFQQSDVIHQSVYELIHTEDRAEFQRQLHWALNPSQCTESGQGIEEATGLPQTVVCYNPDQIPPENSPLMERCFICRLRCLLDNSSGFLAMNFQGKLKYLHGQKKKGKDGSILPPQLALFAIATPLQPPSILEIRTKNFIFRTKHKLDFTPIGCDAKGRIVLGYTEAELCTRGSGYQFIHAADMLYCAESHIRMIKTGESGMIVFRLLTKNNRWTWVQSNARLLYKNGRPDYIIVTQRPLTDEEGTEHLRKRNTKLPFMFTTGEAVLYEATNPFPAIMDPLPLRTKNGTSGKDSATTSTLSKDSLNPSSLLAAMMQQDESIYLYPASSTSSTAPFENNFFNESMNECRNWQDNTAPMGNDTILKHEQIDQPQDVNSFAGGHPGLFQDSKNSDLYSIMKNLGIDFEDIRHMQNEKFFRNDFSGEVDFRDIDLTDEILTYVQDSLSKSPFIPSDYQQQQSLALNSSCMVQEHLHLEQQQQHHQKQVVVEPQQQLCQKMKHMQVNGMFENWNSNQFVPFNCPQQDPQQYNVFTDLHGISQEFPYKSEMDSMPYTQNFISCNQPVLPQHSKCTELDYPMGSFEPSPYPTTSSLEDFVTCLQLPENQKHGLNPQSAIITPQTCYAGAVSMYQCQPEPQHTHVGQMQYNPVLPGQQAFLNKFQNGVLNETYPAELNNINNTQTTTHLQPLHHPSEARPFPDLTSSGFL

PI3Kδ = PI3Kδ (Homo sapiens, UniProt O00329); experiment: ADP-Glo Kinase Assay, PI3Kδ; format: biochemical
[7] = human, male, ref McCarthy et al. ([2020]), cited from earlier work
PI4Kβ = PI4Kβ (Homo sapiens, UniProt Q9UBF8); settings: chemoproteomic profiling, ref Paquet et al., [2017]; cited from earlier work
PI4Kα [8] = target: T1, PI4Kα; settings: chemoproteomic profiling, ref Paquet et al., [2017]; cited from earlier work
[9] = 2 mg/kg/day, 2 mg/kg/day oral, GD6
[10] = 2 mg/kg/day, 2 mg/kg/day oral, GD17
[11] = 6 mg/kg/day, 6 mg/kg/day oral, GD6
[12] = 6 mg/kg/day, 6 mg/kg/day oral, GD17
[13] = 20 mg/kg/day, 20 mg/kg/day oral, GD6
[14] = 20 mg/kg/day, 20 mg/kg/day oral, GD17
[15] = Sprague-Dawley (Crl: OFA SD), 40 mg/kg/day, 40 mg/kg/day oral, GD6
[16] = Sprague-Dawley (Crl: OFA SD), 40 mg/kg/day, 40 mg/kg/day oral, GD17
[17] = Sprague-Dawley, 20 mg/kg/day, 20 mg/kg/day oral, GD6
[18] = Sprague-Dawley, 20 mg/kg/day, 20 mg/kg/day oral, GD17

T1 sequence (P42356 whole entry): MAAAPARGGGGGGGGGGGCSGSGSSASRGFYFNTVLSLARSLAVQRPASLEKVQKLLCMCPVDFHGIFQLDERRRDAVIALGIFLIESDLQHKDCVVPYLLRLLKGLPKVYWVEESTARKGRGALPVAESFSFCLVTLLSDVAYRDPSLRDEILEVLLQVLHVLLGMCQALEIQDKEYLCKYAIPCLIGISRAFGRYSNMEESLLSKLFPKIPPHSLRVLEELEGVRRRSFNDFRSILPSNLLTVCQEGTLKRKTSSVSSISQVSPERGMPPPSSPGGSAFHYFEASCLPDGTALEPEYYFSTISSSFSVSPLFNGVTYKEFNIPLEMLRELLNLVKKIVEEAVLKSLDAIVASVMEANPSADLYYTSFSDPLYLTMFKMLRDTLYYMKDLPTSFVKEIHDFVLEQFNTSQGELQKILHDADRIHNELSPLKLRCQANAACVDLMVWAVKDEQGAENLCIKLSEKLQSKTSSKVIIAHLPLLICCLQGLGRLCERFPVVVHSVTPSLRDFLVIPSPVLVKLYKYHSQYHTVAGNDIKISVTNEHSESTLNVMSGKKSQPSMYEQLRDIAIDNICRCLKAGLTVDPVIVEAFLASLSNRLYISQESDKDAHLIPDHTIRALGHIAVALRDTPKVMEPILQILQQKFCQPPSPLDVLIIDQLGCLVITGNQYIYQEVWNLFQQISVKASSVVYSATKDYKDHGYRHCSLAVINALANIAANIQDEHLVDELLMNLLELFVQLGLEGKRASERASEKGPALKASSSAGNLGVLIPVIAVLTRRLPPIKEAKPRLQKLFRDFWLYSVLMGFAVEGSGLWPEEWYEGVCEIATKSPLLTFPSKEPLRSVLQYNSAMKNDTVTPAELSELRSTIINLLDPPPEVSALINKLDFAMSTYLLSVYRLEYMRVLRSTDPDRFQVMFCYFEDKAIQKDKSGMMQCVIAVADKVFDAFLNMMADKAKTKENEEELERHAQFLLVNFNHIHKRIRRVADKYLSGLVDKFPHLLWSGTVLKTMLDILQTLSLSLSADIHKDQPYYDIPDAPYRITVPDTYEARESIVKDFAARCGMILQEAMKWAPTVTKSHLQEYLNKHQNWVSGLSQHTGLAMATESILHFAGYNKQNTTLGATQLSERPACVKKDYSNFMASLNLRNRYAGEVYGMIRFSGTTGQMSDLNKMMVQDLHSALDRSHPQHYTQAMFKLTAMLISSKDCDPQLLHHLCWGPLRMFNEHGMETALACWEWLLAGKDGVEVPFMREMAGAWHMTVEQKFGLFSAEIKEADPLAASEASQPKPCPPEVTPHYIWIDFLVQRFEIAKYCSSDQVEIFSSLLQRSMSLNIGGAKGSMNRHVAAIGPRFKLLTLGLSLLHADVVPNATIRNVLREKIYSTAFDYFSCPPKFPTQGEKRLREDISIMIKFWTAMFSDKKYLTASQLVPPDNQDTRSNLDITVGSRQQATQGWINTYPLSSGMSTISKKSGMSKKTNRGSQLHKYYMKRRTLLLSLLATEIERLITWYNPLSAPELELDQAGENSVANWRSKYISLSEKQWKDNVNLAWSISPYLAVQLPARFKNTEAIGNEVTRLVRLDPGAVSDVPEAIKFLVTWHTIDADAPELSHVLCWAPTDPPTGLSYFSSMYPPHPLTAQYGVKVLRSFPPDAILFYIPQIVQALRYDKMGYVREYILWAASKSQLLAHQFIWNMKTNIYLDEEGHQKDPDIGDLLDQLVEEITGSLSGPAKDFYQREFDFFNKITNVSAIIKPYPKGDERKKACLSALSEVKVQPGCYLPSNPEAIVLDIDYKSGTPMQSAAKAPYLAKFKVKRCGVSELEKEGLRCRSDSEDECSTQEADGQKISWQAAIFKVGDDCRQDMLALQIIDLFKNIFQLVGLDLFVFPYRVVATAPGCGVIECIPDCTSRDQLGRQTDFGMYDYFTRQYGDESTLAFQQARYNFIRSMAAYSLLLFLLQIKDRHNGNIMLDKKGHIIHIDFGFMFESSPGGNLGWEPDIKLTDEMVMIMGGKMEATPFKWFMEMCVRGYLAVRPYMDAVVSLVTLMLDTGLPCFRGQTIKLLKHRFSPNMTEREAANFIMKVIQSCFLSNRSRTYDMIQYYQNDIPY
PI3Kδ, sequence (O00329 whole entry): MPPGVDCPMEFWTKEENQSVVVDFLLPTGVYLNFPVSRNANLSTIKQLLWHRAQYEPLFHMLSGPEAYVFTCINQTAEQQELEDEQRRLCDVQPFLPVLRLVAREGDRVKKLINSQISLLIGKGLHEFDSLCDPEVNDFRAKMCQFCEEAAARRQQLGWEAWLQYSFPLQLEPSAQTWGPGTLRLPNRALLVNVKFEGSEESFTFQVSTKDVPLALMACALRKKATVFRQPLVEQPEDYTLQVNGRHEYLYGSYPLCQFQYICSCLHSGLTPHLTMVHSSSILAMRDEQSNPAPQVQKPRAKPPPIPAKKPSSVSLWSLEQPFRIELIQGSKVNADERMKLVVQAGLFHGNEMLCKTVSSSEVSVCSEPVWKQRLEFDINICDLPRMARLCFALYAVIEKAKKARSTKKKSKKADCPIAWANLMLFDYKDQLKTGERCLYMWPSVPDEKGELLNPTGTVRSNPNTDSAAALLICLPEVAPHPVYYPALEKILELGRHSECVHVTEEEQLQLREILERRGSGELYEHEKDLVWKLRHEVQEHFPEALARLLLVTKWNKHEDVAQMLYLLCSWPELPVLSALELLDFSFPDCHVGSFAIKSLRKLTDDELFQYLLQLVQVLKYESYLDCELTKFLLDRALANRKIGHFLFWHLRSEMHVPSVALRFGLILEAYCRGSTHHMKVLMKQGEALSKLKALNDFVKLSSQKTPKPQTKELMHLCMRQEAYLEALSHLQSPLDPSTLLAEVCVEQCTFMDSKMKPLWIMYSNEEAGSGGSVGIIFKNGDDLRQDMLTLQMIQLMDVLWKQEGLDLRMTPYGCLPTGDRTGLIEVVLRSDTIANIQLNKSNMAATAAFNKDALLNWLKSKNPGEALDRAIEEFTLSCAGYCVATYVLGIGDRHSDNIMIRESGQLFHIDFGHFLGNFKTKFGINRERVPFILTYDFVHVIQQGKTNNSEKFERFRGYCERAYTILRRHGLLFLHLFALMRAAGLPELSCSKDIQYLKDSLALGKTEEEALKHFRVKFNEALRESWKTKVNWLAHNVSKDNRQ
PI3Kδ, sequence (P27986 whole entry partner): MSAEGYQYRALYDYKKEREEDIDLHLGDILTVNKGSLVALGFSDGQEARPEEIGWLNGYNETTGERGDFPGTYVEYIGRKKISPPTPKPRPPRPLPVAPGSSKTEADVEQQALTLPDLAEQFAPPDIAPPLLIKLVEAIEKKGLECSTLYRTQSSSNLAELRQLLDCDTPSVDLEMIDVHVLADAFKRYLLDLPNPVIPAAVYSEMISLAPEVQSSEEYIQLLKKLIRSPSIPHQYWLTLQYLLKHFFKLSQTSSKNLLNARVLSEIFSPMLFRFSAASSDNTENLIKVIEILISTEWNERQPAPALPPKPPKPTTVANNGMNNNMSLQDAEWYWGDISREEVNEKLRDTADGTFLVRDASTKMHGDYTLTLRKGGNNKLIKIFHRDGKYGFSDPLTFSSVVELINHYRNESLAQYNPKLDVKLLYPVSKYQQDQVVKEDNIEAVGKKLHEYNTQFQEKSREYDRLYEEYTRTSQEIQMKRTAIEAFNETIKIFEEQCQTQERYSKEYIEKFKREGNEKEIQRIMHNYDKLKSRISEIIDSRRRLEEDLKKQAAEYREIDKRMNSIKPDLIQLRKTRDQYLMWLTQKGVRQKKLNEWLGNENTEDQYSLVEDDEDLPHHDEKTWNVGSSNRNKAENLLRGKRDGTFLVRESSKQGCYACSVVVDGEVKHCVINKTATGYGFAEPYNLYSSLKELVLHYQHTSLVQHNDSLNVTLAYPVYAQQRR
PI4Kβ, sequence (Q9UBF8 whole entry): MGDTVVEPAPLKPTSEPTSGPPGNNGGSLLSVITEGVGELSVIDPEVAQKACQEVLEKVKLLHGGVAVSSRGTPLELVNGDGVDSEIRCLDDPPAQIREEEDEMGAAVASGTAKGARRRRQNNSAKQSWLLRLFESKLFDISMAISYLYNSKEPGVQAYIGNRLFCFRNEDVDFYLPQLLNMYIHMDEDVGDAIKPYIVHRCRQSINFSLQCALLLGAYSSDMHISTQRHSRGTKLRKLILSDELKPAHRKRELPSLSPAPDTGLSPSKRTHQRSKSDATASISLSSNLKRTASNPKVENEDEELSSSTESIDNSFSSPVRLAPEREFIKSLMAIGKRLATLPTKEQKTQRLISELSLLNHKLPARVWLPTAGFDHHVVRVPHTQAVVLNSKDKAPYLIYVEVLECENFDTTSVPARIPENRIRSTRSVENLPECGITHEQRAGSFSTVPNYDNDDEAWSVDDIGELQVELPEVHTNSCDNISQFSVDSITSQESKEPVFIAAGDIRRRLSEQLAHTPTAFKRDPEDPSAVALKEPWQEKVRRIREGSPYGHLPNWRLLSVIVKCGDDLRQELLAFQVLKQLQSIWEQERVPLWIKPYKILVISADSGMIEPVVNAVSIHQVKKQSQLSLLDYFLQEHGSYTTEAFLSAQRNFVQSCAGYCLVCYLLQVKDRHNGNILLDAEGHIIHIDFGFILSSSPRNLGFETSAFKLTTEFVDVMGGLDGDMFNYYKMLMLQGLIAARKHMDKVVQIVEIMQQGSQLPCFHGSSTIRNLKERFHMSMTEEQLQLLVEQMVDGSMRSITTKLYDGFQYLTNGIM

With CS(=O)(=O)c1ccc(-c2cnc(N)c(-c3ccc(C(F)(F)F)nc3)c2)cc1 [MMV390048] the “maximum concentrations achieved in vivo, free” value ([1]; across rat EFD in vivo studies) was 8 µM, the AUC(0-t) ([1]; GD6) was 229000 ng·h/mL and the AUC(0-t) ([1]; GD17) was 361000 ng·h/mL. For the same compound, the Cmax ([1]; GD6) was 15600 ng/mL, the Cmax ([1]; GD17) was 21300 ng/mL and the Tmax ([1]; GD6) was 8 h. For the same compound, the Tmax ([1]; GD17) was 4 h, the “Maximum exposure (free)” value ([1]; rat DRF EFD KIT, GD17, 60 mg/kg, 4 hr post dose) was 8 μM/L and the Tmax ([2]; 2 mg/kg/day) was 2 h. It also gave an AUC(0-t) [2, 9] of 3750 ng·h/mL, an AUC(0-t) [2, 10] of 3770 ng·h/mL and a Cmax [2, 9] of 680 ng/mL. The Cmax [2, 10] was 681 ng/mL, the Tmax ([2]; 6 mg/kg/day) was 2 h and the AUC(0-t) [2, 11] was 19600 ng·h/mL. It also gave an AUC(0-t) [2, 12] of 21400 ng·h/mL, a Cmax [2, 11] of 1380 ng/mL and a Cmax [2, 12] of 1600 ng/mL. For the same compound, the Tmax ([2]; 20 mg/kg/day) was 4 h, the AUC(0-t) [2, 13] was 70000 ng·h/mL and the AUC(0-t) [2, 14] was 74400 ng·h/mL. For the same compound, the Cmax [2, 13] was 4950 ng/mL, the Cmax [2, 14] was 5190 ng/mL and the “Maximum exposure (free)” value ([2]; rat EFD main KIT, GD17, 20 mg/kg, 4 hr post dose) was 2 μM/L. The Tmax ([3]; Sprague-Dawley (Crl: OFA SD), 40 mg/kg/day) was 7 h, the AUC(0-t) [3, 15] was 213000 ng·h/mL and the AUC(0-t) [3, 16] was 310000 ng·h/mL. For the same compound, the Cmax [3, 15] was 11300 ng/mL, the Cmax [3, 16] was 17100 ng/mL and the Tmax ([3]; Sprague-Dawley, 20 mg/kg/day) was 7 h. It also gave an AUC(0-t) [3, 17] of 92900 ng·h/mL, an AUC(0-t) [3, 18] of 134000 ng·h/mL and a Cmax [3, 17] of 5230 ng/mL. For the same compound, the Cmax [3, 18] was 7550 ng/mL, the “Maximum exposure (free)” value ([3]; rat investigational EFD CRL, GD17, 40 mg/kg, 7 hr post dose) was 6.5 μM/L and the AUC(0-t) ([4]; 1 mg/kg/day) was 3750 ng·h/mL. The Cmax ([4]; 1 mg/kg/day) was 267 ng/mL, the Tmax ([4]; 1 mg/kg/day) was 2 h and the AUC(0-t) ([4]; 3 mg/kg/day) was 14900 ng·h/mL. The Cmax ([4]; 3 mg/kg/day) was 857 ng/mL, the Tmax ([4]; 3 mg/kg/day) was 4 h and the AUC(0-t) ([4]; 10 mg/kg/day) was 64500 ng·h/mL. For the same compound, the Cmax ([4]; 10 mg/kg/day) was 3790 ng/mL, the Tmax ([4]; 10 mg/kg/day) was 4 h and the AUC(0-t) ([5]; 1 mg/kg/day) was 4090 ng·h/mL. For the same compound, the Cmax ([5]; 1 mg/kg/day) was 250 ng/mL, the Tmax ([5]; 1 mg/kg/day) was 4 h and the AUC(0-t) ([5]; 3 mg/kg/day) was 13600 ng·h/mL. The Cmax ([5]; 3 mg/kg/day) was 894 ng/mL, the Tmax ([5]; 3 mg/kg/day) was 2 h and the AUC(0-t) ([5]; 10 mg/kg/day) was 53300 ng·h/mL. For the same compound, the Cmax ([5]; 10 mg/kg/day) was 3410 ng/mL, the Tmax ([5]; 10 mg/kg/day) was 2 h and the “Female with viable fetuses” value (pregnant rats; 3 mg/kg/day GD6-GD17) was 8/8. The “Postimplantation loss (%)” value (pregnant rats; 3 mg/kg/day GD6-GD17) was 5.1%, the “Female with viable fetuses” value (pregnant rats; 10 mg/kg/day GD6-GD17) was 8/8 and the “Fetal BW % from CTL” value (pregnant rats; 10 mg/kg/day GD6-GD17) was −2%. For the same compound, the “Postimplantation loss (%)” value (pregnant rats; 10 mg/kg/day GD6-GD17) was 1.7%, the “Female with viable fetuses” value (pregnant rats; 30 mg/kg/day GD6-GD17) was 7/7 and the “Fetal BW % from CTL” value (pregnant rats; 30 mg/kg/day GD6-GD17) was −5%. For the same compound, the “Heart VSD, fetuses with malformation/total fetuses examined” value (pregnant rats; 30 mg/kg/day GD6-GD17) was 1/43, the “Heart VSD, litters with malformation/total litters examined” value (pregnant rats; 30 mg/kg/day GD6-GD17) was 1/7 and the “Postimplantation loss (%)” value (pregnant rats; 30 mg/kg/day GD6-GD17) was 5.9%. For the same compound, the “Treatment‐related skeletal malformations” value (pregnant rats; 60 mg/kg/day) was “fused rib, short rib, split sternebra, and fused cervical arch”, the “VSD, number of fetuses” value (pregnant rats; 60 mg/kg/day) was 3 fetuses and the “VSD, number of litters” value (pregnant rats; 60 mg/kg/day) was 3 litters. The “hernia of the diaphragm, number of fetuses” value (pregnant rats; 60 mg/kg/day) was 12 fetuses, the “hernia of the diaphragm, number of litters” value (pregnant rats; 60 mg/kg/day) was 3 litters and the “Blood vessels IAA, fetuses with malformation/total fetuses examined” value (pregnant rats; 60 mg/kg/day GD6-GD17) was 1/40. The “Blood vessels IAA, litters with malformation/total litters examined” value (pregnant rats; 60 mg/kg/day GD6-GD17) was 1/8, the “Female with viable fetuses” value (pregnant rats; 60 mg/kg/day GD6-GD17) was 8/8 and the “Fetal BW % from CTL” value (pregnant rats; 60 mg/kg/day GD6-GD17) was −16%. The “Heart VSD, fetuses with malformation/total fetuses examined” value (pregnant rats; 60 mg/kg/day GD6-GD17) was 7/40, the “Heart VSD, litters with malformation/total litters examined” value (pregnant rats; 60 mg/kg/day GD6-GD17) was 3/8 and the “Hernias, fetuses with malformation/total fetuses examined” value (pregnant rats; 60 mg/kg/day GD6-GD17) was 12/40. For the same compound, the “Hernias, litters with malformation/total litters examined” value (pregnant rats; 60 mg/kg/day GD6-GD17) was 3/8, the “Postimplantation loss (%)” value (pregnant rats; 60 mg/kg/day GD6-GD17) was 21.9% and the litter size (pregnant rats; 60 mg/kg/day, 14 in the control group) was 10.6. For the same compound, the “embryofetal developmental toxicity signals” value (pregnant rabbits) was “no signals of concern”, the IC50 (PI4Kα [6]) was 18.7 µM and the IC50 (AhR) was 7.9 µM. For the same compound, the IC50 (PI3Kδ) was 8.1 µM, the “AUC(0−inf)” value ([7]; dose 40 mg) was 30,320 hr*ng/ml and the C max ([7]; dose 40 mg) was 272.7 ng/mL. For the same compound, the T max ([7]; dose 40 mg) was 1.5 h, the “AUC(0−inf)” value ([7]; dose 80 mg) was 82,680 hr*ng/ml and the C max ([7]; dose 80 mg) was 561 ng/mL. The “AUC(0−inf)” value ([7]; dose 120 mg) was 137,800 hr*ng/ml, the C max ([7]; dose 120 mg) was 1,094 ng/ml and the T max ([7]; dose 120 mg) was 1 h. The “binding to human PI4Kβ” value (PI4Kβ) was “no binding” and the “binding to human PI4Kα” value (PI4Kα [8]) was “no binding”.
